Four compounds from US9399631B2, “Polyphenol proteasome inhibitors, synthesis, and methods of use” (UNIVERSITY OF SOUTH FLORIDA, priority 2003, dated 2016) can be followed below.

Each structure is given as a SMILES string.

For assay [1], the target named is T1, 20S eukaryotic proteasome (Oryctolagus cuniculus, UniProt G1T4Q9).
T1 construct: purchased BOSTON BIOCHEM (Cambridge, Mass.)
T1 sequence (G1T4Q9 1-263): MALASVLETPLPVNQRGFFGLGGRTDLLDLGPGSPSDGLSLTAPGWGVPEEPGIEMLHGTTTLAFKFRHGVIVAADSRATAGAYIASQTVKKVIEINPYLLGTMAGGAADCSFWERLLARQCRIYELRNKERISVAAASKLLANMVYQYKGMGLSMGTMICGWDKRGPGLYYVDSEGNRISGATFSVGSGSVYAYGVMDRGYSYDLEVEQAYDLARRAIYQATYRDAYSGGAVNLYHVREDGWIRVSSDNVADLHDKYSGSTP
Description: Inhibition of chymotrypsin-like activity of purified eukaryotic 20S proteasome (Suc-Leu-Leu-Val-Tyr-AMC). In kind it is biochemical, rabbit. Particulars: for IC50: chymotrypsin-like activity, rabbit 20S proteasome. The method, boiled down:
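Purified rabbit 20S proteasome (0.02 μg) incubated with 20 μM Suc-LLVY-AMC for 30 min at 37° C in Tris-HCl pH 7.5, with or without compound. Chymotrypsin-like activity read as released AMC fluorescence (Ex 380 or 355 nm/Em 460 nm).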

Another assay concerns LNCaP cells. Nature of the assay: Soft agar colony formation assay. In kind it is cell-based, human. Particulars: 10 μM, 14 day-incubation. The method, boiled down:
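2×10^4 human prostate cancer cells seeded in 0.3% top agar over a 0.6% agar layer (DMEM, 10% FBS) together with analogs at 50 μM or 10 μM, or solvent control. Incubated 14 days at 37 °C, 5% CO2, then stained overnight with MTT (1 mg/ml). Colonies counted; means of triplicate independent experiments ± SD.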

`O=C(OC1Cc2c(O)cc(O)cc2OC1c1cc(O)c(O)c(O)c1)c1cc(O)c(O)c(O)c1` (single isomer, unassigned; (+)) [(+)-EGCG] yielded a half-maximal inhibitory concentration (IC50) in assay [1] of 0.17 µM. Moreover, the “inhibition of colony formation” value in the assay on LNCaP cells was determined as 99.5%.

Take `O=C(OC1Cc2c(O)cc(O)cc2OC1c1cc(O)c(O)c(O)c1)c1cc(O)c(O)c(O)c1` (single isomer, unassigned; (+)) [(+)-GCG]: in assay [1], the 50% inhibitory concentration (IC50) stood at 0.27 µM. Further, the inhibition at 10 µM with LNCaP cells (Homo sapiens, LNCaP, 336 h) was 91.5%.

`O=C(O[C@@H]1Cc2c(O)cc(O)cc2O[C@@H]1c1cc(O)c(O)c(O)c1)c1cc(O)c(O)c(O)c1` [(−)-EGCG, (−)-epigallocatechin-3-gallate, reference compound]: in assay [1] (1 μM, 0.01% SDS added after 1 hour (SDS-post)), the “reversal of proteasome inhibition by SDS” value is “could not reverse the EGCG-mediated proteasome inhibition”. In addition, the “inhibition of chymotrypsin-like activity” value in assay [1] (1 μM, 5 min) is 35%; in assay [1] (1 μM, 30 min), 62%; in assay [1] (1 μM, after 1 to 3 hours), 70-80%; in assay [1] (1 μM, no SDS) it was “up to 75%”; in assay [1] (1 μM, pre-incubation with 0.01% SDS for 1 hour (SDS-pre)) it was 10-20%. The same compound registered an IC50 in assay [1] of 0.205 µM. For the same compound, the “inhibition of colony formation” value in the assay with LNCaP cells is 99.0%.

In assay [1], `O=C(N[C@@H]1Cc2c(O)cc(O)cc2O[C@@H]1c1cc(O)c(O)c(O)c1)c1cc(O)c(O)c(O)c1` [(−)-EGCG-amide, (−)-[2R,3R]-N-[5,7-Dihydroxy-2-(3,4,5-trihydroxyphenyl)-chroman-3-yl]-3,4,5-trihydroxybenzamide] displayed an IC50 of 0.32 µM.

For orientation: IC50 means the point on the concentration scale where inhibition reaches its midpoint. The low end stands for higher potency, the high end for lower potency. As a reminder, the inhibition is the percentage by which the read-out fell short of the control. A lower inhibition goes with a response near the control.
